Experimental data published in ChEMBL document CHEMBL6182828, “Medicinal chemistry-based perspectives on thiophene and its derivatives: exploring structural insights to discover plausible druggable leads” (RSC Med Chem, 2025).
Converted amounts (≈) assume the structure as drawn.

How the values were obtained:
[1] = Half life in po dosed human; format: ADME, organism-based; settings: in vivo
[2] = biological target: T1, Polyunsaturated fatty acid 5-lipoxygenase (Homo sapiens, UniProt P09917); assay: Inhibition of 5-LOX (unknown origin)
T1 sequence (P09917 whole entry): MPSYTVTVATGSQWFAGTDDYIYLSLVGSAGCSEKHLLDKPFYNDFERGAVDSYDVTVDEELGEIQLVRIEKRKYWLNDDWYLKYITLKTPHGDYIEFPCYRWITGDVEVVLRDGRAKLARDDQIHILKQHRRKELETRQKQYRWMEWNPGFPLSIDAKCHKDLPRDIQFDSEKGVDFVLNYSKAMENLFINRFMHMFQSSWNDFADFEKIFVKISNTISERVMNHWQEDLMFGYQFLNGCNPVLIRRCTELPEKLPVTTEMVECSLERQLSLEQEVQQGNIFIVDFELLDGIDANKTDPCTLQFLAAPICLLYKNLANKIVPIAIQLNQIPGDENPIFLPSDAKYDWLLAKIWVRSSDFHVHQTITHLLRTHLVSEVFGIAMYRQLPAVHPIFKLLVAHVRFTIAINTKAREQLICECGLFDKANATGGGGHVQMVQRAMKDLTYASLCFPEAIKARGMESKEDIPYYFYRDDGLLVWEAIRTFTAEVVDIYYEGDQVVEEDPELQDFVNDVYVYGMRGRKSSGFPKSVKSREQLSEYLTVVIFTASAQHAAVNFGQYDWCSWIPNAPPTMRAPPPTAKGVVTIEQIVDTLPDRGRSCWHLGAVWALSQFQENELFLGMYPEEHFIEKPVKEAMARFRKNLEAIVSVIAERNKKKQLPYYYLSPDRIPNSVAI

PC-3 = assay: cells; settings: Homo sapiens
Description: Cytotoxicity against human PC-3 cells assessed as reduction in cell viability by MTT assay

A549 = assay: cells; settings: Homo sapiens
Description: Cytotoxicity against human A549 cells assessed as reduction in cell viability by MTT assay

MDA-MB-231 = assay: cells; settings: Homo sapiens
Description: Cytotoxicity against human MDA-MB-231 cells assessed as reduction in cell viability by MTT assay

[3] = biological target: Amine oxidase [flavin-containing] A (Homo sapiens, UniProt P21397); assay: Inhibition of human MAO-A measured after 25 mins by Amplex Red reagent based fluorescence analysis
Candida albicans = assay: Antifungal activity against Candida albicans assessed as zone of inhibition; format: functional
Arthroderma pannicola = assay: Antifungal activity against Arthroderma pannicola assessed as diameter of zone of inhibition; format: functional
Acetylcholinesterase = Acetylcholinesterase (Homo sapiens, UniProt P22303); assay: Inhibition of AChE (unknown origin) by Ellman's method
MCF7 [4] = assay: Antiproliferative activity against human MCF7 cells; format: functional, cell-based
[5] = Elimination half life in human at 5 mg/kg, po; format: ADME, organism-based; settings: in vivo, read-out: LambdaZ (converted)
SF-268 = assay: Growth inhibition of human SF-268 cells incubated for 48 hrs by SRB assay; format: functional
MCF7 [6] = assay: Growth inhibition of human MCF7 cells incubated for 48 hrs by SRB assay; format: functional
NCI-H460 = assay: Growth inhibition of human NCI-H460 cells incubated for 48 hrs by SRB assay; format: functional
Rattus norvegicus = assay: Anti-inflammatory activity against carrageenan-induced paw edema in Albino rat assessed as inhibition of paw edema at 50 mg/kg, po relative to control; format: functional; design: scale not given: the % may be the effect or the level left
HepG2 = assay: Cytotoxicity against human HepG2 cells assessed as reduction in cell growth incubated for 24 hrs by SRB assay; format: functional, cell-based; settings: HepG2, 24 h
MCF7 [7] = assay: Cytotoxicity against human MCF7 cells assessed as reduction in cell growth incubated for 24 hrs by SRB assay; format: functional, cell-based; settings: MCF7, 24 h
NUGC-3 = assay: Cytotoxicity against human NUGC-3 cells assessed as reduction in cell growth incubated for 24 hrs by SRB assay; format: functional, cell-based; settings: NUGC-3, 24 h
HONE1 cell line = assay: Cytotoxicity against human HONE1 cell line assessed as reduction in cell growth incubated for 24 hrs by SRB assay; format: toxicity, cell-based; settings: HONE1, 24 h
HA22T cell line = assay: Cytotoxicity against human HA22T cell line assessed as reduction in cell growth incubated for 24 hrs by SRB assay; format: functional, cell-based
DLD-1 = assay: Cytotoxicity against human DLD-1 cells assessed as reduction in cell growth incubated for 24 hrs by SRB assay; format: functional, cell-based; settings: DLD-1, 24 h
[8] = Cytotoxicity against human WI-38 cells assessed as reduction in cell growth incubated for 24 hrs by SRB assay; format: toxicity, cell-based
Bacillus subtilis = assay: Antibacterial activity against Bacillus subtilis ATCC 6633 assessed as zone of inhibition incubated for 48 hrs by agar diffusion method; format: functional
Escherichia coli = assay: Antibacterial activity against Escherichia coli ATCC 35218 assessed as zone of inhibition incubated for 48 hrs by agar diffusion method; format: functional
Alpha glucosidase = Alpha glucosidase (Homo sapiens, UniProt O43451+P10253+P14410+Q2M2H8); assay: Inhibition of Alpha glucosidase (unknown origin); format: protein assay
[9] = Inhibition of Alpha-amylase (unknown origin); design: species or system Homo sapiens
[10] = biological target: Epidermal growth factor receptor (Homo sapiens, UniProt P00533); assay: Inhibition of EGFR (unknown origin)
[11] = biological target: Vascular endothelial growth factor receptor 2 (Homo sapiens, UniProt P35968); assay: Inhibition of VEGFR2 (unknown origin)
Glucagon receptor [12] = biological target: T2, Glucagon receptor (Homo sapiens, UniProt P47871); assay: Antagonist activity at wild type human GCGR transfected in HEK293T cells assessed as intracellular cAMP accumulation incubated for 60 mins by FRET assay; format: functional, cell-based
Glucagon receptor [13] = biological target: T2, Glucagon receptor; assay: Antagonist activity at wild type human GCGR
[14] = Antioxidant activity assessed as DPPH radical scavenging activity; format: functional
[15] = biological target: Amine oxidase [flavin-containing] B (Homo sapiens, UniProt P27338); assay: Inhibition of human MAO-B measured after 25 mins by Amplex Red reagent based fluorescence analysis
Sequence of Amine oxidase [flavin-containing] B (P27338 whole entry): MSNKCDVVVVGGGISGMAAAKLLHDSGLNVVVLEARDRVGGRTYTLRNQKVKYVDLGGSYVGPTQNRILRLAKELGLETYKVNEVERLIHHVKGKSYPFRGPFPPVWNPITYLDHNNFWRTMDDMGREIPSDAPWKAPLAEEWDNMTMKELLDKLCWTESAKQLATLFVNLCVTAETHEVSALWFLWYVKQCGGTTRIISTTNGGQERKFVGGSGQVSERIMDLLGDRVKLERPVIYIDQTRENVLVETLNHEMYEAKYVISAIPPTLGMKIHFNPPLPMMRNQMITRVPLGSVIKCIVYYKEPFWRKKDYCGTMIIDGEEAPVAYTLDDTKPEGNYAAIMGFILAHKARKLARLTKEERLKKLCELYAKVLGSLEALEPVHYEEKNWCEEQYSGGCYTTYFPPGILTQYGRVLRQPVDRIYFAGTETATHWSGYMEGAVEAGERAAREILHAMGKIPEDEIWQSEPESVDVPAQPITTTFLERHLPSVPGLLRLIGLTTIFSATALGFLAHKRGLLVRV

T2 sequence (P47871 whole entry): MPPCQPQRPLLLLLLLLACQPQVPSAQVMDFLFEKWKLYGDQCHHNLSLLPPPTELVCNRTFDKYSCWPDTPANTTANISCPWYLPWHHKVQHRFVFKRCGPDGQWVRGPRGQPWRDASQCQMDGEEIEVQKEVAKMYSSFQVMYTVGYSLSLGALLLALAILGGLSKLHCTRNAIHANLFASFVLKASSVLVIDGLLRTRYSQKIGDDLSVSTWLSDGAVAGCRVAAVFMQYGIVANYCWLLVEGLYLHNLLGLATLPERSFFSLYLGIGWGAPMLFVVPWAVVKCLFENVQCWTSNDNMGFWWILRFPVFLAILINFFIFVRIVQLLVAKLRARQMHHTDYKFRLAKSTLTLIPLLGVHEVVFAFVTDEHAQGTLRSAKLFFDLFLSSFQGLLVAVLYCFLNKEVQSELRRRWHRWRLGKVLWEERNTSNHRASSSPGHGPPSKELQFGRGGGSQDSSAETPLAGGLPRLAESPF
Sequence of Acetylcholinesterase (P22303 whole entry): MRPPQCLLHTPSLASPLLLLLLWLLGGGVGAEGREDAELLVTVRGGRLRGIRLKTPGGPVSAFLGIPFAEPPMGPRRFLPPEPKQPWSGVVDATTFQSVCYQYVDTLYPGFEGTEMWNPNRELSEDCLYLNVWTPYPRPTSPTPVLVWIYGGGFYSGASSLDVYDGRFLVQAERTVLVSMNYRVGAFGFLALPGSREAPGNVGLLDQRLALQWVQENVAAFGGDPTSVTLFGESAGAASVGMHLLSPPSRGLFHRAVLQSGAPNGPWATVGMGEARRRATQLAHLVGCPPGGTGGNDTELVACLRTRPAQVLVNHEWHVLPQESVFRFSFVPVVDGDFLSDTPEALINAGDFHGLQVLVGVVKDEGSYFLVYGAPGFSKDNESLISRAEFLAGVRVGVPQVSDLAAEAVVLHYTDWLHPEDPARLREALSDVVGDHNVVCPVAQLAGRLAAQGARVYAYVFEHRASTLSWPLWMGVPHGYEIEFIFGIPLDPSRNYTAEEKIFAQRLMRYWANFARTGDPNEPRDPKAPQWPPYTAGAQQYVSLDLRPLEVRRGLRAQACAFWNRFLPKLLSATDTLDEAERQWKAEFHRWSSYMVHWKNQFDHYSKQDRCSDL
Sequence of Amine oxidase [flavin-containing] A (P21397 whole entry): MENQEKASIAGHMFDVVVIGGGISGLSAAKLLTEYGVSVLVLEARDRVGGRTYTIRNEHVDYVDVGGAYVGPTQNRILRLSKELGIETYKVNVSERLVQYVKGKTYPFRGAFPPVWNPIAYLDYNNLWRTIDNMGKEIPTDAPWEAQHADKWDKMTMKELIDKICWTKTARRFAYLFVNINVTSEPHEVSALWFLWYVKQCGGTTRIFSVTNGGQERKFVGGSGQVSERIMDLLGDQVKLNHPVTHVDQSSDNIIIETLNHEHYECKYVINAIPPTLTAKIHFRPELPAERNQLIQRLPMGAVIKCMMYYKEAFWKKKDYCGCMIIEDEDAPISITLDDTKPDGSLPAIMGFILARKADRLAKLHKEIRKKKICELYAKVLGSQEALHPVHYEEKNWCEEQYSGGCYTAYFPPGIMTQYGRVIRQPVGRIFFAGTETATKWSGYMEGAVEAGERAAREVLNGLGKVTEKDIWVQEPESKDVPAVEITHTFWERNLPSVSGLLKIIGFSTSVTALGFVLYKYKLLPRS
Sequence of Vascular endothelial growth factor receptor 2 (P35968 whole entry): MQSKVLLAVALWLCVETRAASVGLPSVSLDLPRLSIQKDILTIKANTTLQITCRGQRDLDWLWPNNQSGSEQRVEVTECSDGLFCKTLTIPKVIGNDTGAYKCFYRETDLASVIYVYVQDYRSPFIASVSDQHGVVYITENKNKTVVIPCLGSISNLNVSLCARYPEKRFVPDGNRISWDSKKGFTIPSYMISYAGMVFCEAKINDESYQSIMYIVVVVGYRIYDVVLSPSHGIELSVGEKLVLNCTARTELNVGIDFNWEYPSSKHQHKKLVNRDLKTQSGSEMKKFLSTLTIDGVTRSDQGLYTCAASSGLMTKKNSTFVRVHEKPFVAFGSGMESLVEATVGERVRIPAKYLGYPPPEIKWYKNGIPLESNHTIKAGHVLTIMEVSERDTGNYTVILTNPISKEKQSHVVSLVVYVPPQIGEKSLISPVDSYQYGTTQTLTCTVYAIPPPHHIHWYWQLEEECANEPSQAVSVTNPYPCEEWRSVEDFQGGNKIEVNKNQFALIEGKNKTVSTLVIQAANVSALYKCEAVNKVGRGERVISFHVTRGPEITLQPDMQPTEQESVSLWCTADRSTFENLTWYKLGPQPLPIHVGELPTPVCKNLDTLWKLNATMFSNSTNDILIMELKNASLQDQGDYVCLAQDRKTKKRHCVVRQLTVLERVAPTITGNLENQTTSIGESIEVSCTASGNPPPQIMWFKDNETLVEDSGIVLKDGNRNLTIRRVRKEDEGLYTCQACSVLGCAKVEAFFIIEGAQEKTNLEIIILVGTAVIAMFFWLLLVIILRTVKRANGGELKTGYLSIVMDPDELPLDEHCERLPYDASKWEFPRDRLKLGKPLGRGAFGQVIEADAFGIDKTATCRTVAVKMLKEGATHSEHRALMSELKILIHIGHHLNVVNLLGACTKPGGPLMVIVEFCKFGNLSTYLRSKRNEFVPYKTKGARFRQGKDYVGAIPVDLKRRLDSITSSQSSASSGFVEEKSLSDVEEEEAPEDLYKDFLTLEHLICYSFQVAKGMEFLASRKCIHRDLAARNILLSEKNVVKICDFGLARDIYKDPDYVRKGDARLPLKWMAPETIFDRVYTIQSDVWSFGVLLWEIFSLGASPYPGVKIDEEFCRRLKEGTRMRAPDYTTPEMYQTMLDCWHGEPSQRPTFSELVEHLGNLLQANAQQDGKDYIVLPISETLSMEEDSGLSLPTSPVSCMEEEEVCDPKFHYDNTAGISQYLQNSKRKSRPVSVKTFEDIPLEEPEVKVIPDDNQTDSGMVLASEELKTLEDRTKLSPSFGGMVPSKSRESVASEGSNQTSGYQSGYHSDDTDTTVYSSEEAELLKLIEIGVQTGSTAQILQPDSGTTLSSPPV
Sequence of Epidermal growth factor receptor (P00533 whole entry): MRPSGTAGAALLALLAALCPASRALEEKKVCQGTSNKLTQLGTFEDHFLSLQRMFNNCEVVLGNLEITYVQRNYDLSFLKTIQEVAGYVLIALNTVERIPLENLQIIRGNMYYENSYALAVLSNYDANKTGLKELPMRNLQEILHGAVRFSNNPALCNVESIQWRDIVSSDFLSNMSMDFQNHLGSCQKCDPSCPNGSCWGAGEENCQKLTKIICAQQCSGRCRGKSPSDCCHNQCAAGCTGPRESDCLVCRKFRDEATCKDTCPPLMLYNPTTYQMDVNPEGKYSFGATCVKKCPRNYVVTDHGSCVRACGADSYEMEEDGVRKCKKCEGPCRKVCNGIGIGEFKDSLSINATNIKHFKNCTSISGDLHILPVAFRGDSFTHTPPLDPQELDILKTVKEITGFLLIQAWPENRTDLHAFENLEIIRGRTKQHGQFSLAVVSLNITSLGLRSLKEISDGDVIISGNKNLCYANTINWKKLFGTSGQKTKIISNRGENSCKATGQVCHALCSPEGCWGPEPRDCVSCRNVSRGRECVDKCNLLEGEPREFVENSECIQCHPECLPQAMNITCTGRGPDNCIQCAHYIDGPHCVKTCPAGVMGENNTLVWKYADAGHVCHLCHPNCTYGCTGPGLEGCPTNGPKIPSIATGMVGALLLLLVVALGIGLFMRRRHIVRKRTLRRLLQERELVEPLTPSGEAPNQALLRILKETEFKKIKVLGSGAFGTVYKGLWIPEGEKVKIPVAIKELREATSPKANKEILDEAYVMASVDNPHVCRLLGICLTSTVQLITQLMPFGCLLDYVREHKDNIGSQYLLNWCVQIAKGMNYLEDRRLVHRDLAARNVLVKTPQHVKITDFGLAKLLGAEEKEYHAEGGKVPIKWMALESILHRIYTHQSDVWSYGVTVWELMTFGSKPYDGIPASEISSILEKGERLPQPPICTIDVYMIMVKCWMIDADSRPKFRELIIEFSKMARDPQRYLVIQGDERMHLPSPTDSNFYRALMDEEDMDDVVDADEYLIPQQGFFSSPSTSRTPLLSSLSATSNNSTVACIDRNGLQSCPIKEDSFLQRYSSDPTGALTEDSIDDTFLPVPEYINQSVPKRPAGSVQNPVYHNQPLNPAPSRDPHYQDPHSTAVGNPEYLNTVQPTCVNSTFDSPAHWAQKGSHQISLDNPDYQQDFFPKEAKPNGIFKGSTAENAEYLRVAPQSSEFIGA

Structure (SMILES): O=C(Nc1nc(-c2cc(Cl)cs2)c(N2CCN(C3CCCCC3)CC2)s1)c1cnc(N2CCC(C(=O)O)CC2)c(Cl)c1 [AVATROMBOPAG]
- half-life [1]: 19 h

Structure (SMILES): Cc1ccc(-c2cc(C(F)(F)F)nn2-c2ccc(S(N)(=O)=O)cc2)cc1 [CELECOXIB]
- IC50 [2]: 5640 nM

Structure (SMILES): Cc1cc(C2=NO[C@@](c3cc(Cl)c(Cl)c(Cl)c3)(C(F)(F)F)C2)sc1C(=O)NCC(=O)NCC(F)(F)F [LOTILANER]
- half-life [1]: 11 h

Structure (SMILES): Cc1ccc(NCc2ccc(CNc3ccc(C)cc3)o2)cc1
- IC50 (PC-3): 1030 nM
- IC50 (A549): 680 nM
- IC50 (MDA-MB-231): 880 nM

Structure (SMILES): COc1ccc(/C=C2\SC(=S)N(NC(=O)c3sc4ccccc4c3Cl)C2=O)cc1OC
- IC50 [2]: 2330 nM

Structure (SMILES): C/C(=N\N=C1/CS(=O)(=O)N(C)c2ccccc21)c1sccc1Cl
- IC50 [3]: 1040 nM

Structure (SMILES): O=c1c2ccccc2nc(-c2sc3ccccc3c2Cl)n1-c1ccc([N+](=O)[O-])cc1
- inhibition zone (IZ) (Candida albicans): 17 mm
- inhibition zone (IZ) (Arthroderma pannicola): 17 mm

Structure (SMILES): O=C(/C=C/c1cccs1)c1ccc(OCCCCBr)cc1
- IC50 (Acetylcholinesterase): 420 nM

Structure (SMILES): Cc1nc2ccc(CN(C)c3ccc(C(=O)N[C@@H](CCC(=O)O)C(=O)O)s3)cc2c(=O)[nH]1 [RALTITREXED]
- half-life [1]: 192 h

Structure (SMILES): Nc1sc2c(c1C(=O)Nc1cnc3ccccc3c1)CCCC2
- IC50 (MCF7 [4]; Homo sapiens, MCF7, read-out: IC50): 33100 nM

Structure (SMILES): CONC(=O)Nc1ccc(-c2sc3c(c2CN(C)C)c(=O)n(-c2ccc(OC)nn2)c(=O)n3Cc2c(F)cccc2F)cc1 [RELUGOLIX]
- half-life [1]: 25 h

Structure (SMILES): COc1cc2ncn(-c3cc(OCc4ccccc4C(F)(F)F)c(C(N)=O)s3)c2cc1OC [GW843682X]
- IC50 [2]: 10000 nM

Structure (SMILES): CC(=O)Oc1cc2c(s1)CCN(C(C(=O)C1CC1)c1ccccc1F)C2 (stereo not given)
- half-life [5]: 7.4 h

Structure (SMILES): N#Cc1c(-n2c(N)c(C#N)c(N)c(/N=N/c3ccccc3)c2=O)sc2c1CCCC2
- GI50 (SF-268): 4000 nM
- GI50 (MCF7 [6]): 2000 nM
- GI50 (NCI-H460): 8300 nM

Structure (SMILES): N#Cc1c(-c2ccc(N3CCOCC3)cc2)csc1N
- Activity (Rattus norvegicus): 48.94%

Structure (SMILES): N#CC(C#N)=NNc1sc2c(c1C1=NC(=O)C(Cc3ccc(Cl)cc3)S1)CCCC2 (stereo not given)
- IC50 (HepG2): 59 nM
- IC50 (MCF7 [7]): 59 nM
- IC50 (NUGC-3): 59 nM
- IC50 (HONE1 cell line): 59 nM
- IC50 (HA22T cell line): 59 nM
- IC50 (DLD-1): 59 nM
- IC50 at 24 h [8]: 59 nM

Structure (SMILES): O=c1c2ccccc2nc(-c2sc3ccccc3c2Cl)n1O
- inhibition zone (IZ) (Bacillus subtilis): 15 mm
- inhibition zone (IZ) (Escherichia coli): 16 mm

Structure (SMILES): O=c1c2ccccc2nc(-c2sc3ccccc3c2Cl)n1-c1ccc(F)cc1
- inhibition zone (IZ) (Candida albicans): 14 mm
- inhibition zone (IZ) (Arthroderma pannicola): 14 mm

Structure (SMILES): COc1ccc(CNC(=O)Nc2sc3c(c2C#N)CCCC3)c(OC)c1
- IC50 (Alpha glucosidase): 590 nM
- IC50 [9]: 30400 nM

Structure (SMILES): Oc1ccc(Nc2nnnc3sc4c(c23)CCC4)cc1
- IC50 (MCF7 [4]; mcf7): 38730 nM

Structure (SMILES): N#Cc1c(N)sc(C(=O)NC2=NN=C(O)/C2=C(\C=C\c2ccccc2)c2ccccc2)c1N
- IC50 [10]: 320 nM
- IC50 [11]: 320 nM

Structure (SMILES): Cc1cc(Cl)ccc1-c1ccc(NC(=O)C(Cc2ccc(C(=O)NCCS(=O)(=O)O)s2)c2ccc(-c3ccc(OC(F)(F)F)cc3)cc2)cc1 (stereo not given)
- IC50 (Glucagon receptor [12]): 4400 nM
- IC50 (Glucagon receptor [13]): 6100 nM

Structure (SMILES): COc1cccc(NC(=O)Cn2cc(CN3CNc4sccc4C3=O)nn2)c1
- IC50 [14]: 30.16 µg/mL (≈ 75.7 µM)

Structure (SMILES): Cc1cc(Cl)ccc1-c1ccc(NC(=O)C(Cc2ccc(C(=O)NCCS(=O)(=O)O)s2)c2ccc(-c3ccc(C(C)(C)C)cc3)cc2)cc1 (stereo not given)
- IC50 (Glucagon receptor [12]): 14400 nM
- IC50 (Glucagon receptor [13]): 4400 nM

Structure (SMILES): C/C(=N\N=C1/CS(=O)(=O)N(C)c2ccccc21)c1ccc(Br)s1
- IC50 [15]: 1030 nM

Structure (SMILES): CCOC(=O)c1cc(C(=O)N/N=C(/C)[C@H]2CC[C@H]3[C@@H]4CC=C5C[C@@H](O)CC[C@]5(C)[C@H]4CC[C@]23C)c(Nc2ccccc2)s1
- GI50 (SF-268): 30 nM
- GI50 (MCF7 [6]): 10 nM
- GI50 (NCI-H460): 10 nM
